Marks after values point to notes of the source that are not given here.
System: patients with hyposmia
Assay: Smell function (DT, RT, ME, H) by forced-choice, three-stimuli, stepwise-staircase technique with four odors; open trial of oral theophylline
Assay type: in vivo, human
Text: Patients initially reported their sensory dysfunction as either loss of taste (e.g., flavor) and/or smell function. This subjective response was documented by objective psychophysical measurements of olfactory function administered to each patient by use of a forced-choice, three-stimuli, stepwise-staircase technique in a fixed, controlled design (1, 53). Efficacy of this technique and results of testing were previously documented in a double-blind clinical trial (53). Four odors were used; they were pyridine (dead-fish odor), nitrobenzene (bitter-almond odor), thiophene (petroleum-like odor) and amyl acetate (banana-oil odor). Detection thresholds (DT), recognition thresholds (RT) and magnitude estimation (ME) values for each odor were determined as previously described (1, 53). Thresholds were converted into bottle units (BU) as previously described (53) and results reported as M±SEM of correct responses for each odor in each treatment group; ME was reported in % and results calculated to obtain M±SEM for each treatment group for all correct responses using data for the four highest odor concentrations presented (from 10^−2M—an absolute odor concentration).
In addition, each patient graded the hedonic (H) value of each odor presented for these same odor concentrations (from 10^−2M—an absolute odor concentration using a −100−0−+100 scale). […] Results were obtained by calculating the arithmetical sum of each correct recognition response for each odor with respect to its pleasantness, unpleasantness or neutrality. Arithmetic M±SEM were obtained for each treatment group for each odor presented.
After determination of hyposmia, patients were treated in an open label, fixed design, controlled open trial. Patients were given an oral extended release theophylline in divided daily doses taken in the middle of breakfast and lunch. All patients were initially given 200 mg of theophylline; changes in this dose were made based upon subjective responses to therapy. If at a subsequent return visit, patients reported ≥5% subjective improvement in overall smell function, they continued on this same dose of theophylline and were reevaluated after four to six months of continued treatment. Results from any subsequent return from these improved patients were not included in any subsequent data report. All subsequent comparisons between treated and untreated patients were made only between those patients continuing in the study compared to their own measurements obtained in the untreated state. If patients reported <5% subjective improvement, their theophylline dose was increased by 200 mg daily and they were scheduled for retesting at the study site after two to four months at this new dosage. For patients that reported <5% improvement, this sequence continued until patients reached 800 mg of theophylline, at which time the study was considered completed.
Patients returned for reevaluation after two to four months of treatment. Measurements of blood serum theophylline were measured by a fluorescence polarization assay (Abbott, Chicago, Ill.). At this time, subjective changes in smell function were measured independently (compared to patient's memory of previous normal smell function monitored by use of the patients' daily measurements) using the scale from −100−0-+100 previously described. After independently recording their subjective responses, smell function was measured for all four odors with DT, RT, ME and H determined without recourse to prior measurements.
Since data for all measurements from each patient group (local or distant) on each dose level were combined mean and SEM for each measurement (DT, RT, ME, H) of smell function for each treatment group were calculated on this basis. Differences in measurements between before treatment and each treatment level were calculated and significance of differences estimated using Student t tests (values p<0.05 considered significant). […]

[1] = pyridine, oral theophylline 200 mg
[2] = pyridine, oral theophylline 200 mg daily, all patients (199)
[3] = pyridine, oral theophylline 200 mg, Type I hyposmia (57)
[4] = pyridine, oral theophylline 200 mg, Type II hyposmia (138)
[5] = pyridine, oral theophylline 200 mg, Type III hyposmia (4)
[6] = pyridine, oral theophylline 400 mg
[7] = pyridine, oral theophylline 400 mg daily, all patients (120)
[8] = pyridine, oral theophylline 400 mg, Type I hyposmia (33)
[9] = pyridine, oral theophylline 400 mg, Type II hyposmia (85)
[10] = pyridine, oral theophylline 400 mg, Type III hyposmia (2)
[11] = pyridine, oral theophylline 600 mg daily, all patients (160)
[12] = pyridine, oral theophylline 600 mg, Type I hyposmia (51)
[13] = pyridine, oral theophylline 600 mg, Type II hyposmia (105)
[14] = pyridine, oral theophylline 600 mg, Type III hyposmia (4)
[15] = pyridine, oral theophylline 800 mg daily, all patients (28)
[16] = pyridine, oral theophylline 800 mg, Type I hyposmia (12)
[17] = pyridine, oral theophylline 800 mg, Type II hyposmia (16)
[18] = thiophene, oral theophylline 200 mg
[19] = thiophene, oral theophylline 200 mg daily, all patients (199)
[20] = thiophene, oral theophylline 200 mg, Type I hyposmia (57)
[21] = thiophene, oral theophylline 200 mg, Type II hyposmia (138)
[22] = thiophene, oral theophylline 200 mg, Type III hyposmia (4)
[23] = thiophene, oral theophylline 400 mg
[24] = thiophene, oral theophylline 400 mg daily, all patients (120)
[25] = thiophene, oral theophylline 400 mg, Type I hyposmia (33)
[26] = thiophene, oral theophylline 400 mg, Type II hyposmia (85)
[27] = thiophene, oral theophylline 400 mg, Type III hyposmia (2)
[28] = thiophene, oral theophylline 600 mg daily, all patients (160)
[29] = thiophene, oral theophylline 600 mg, Type I hyposmia (51)
[30] = thiophene, oral theophylline 600 mg, Type II hyposmia (105)
[31] = thiophene, oral theophylline 600 mg, Type III hyposmia (4)
[32] = thiophene, oral theophylline 800 mg daily, all patients (28)
[33] = thiophene, oral theophylline 800 mg, Type I hyposmia (12)
[34] = thiophene, oral theophylline 800 mg, Type II hyposmia (16)

## Cn1c(=O)c2[nH]cnc2n(C)c1=O [theophylline]
Oral theophylline 600 mg
  total mean increase of ME for all odors: 6.9%
Oral theophylline 800 mg daily
  decrease of H for pyridine: 55%
  decrease of H for thiophene: 37%
  increase of H for amyl acetate: about 50%
  increase of H for nitrobenzene: about 50%
[1]
  decrease of H values: 2%
  increase of ME values: 6%
[2]
  DT, detection threshold: 7.6 ± 0.2^a BU
  H, hedonic estimation: −22 ± 2^a %
  ME, magnitude estimation: 28 ± 2^a %
  RT, recognition threshold: 9.0 ± 0.2^a BU
[3]
  DT, detection threshold: 9.5 ± 0.2^ BU
  H, hedonic value: −8 ± 2^a %
  ME, magnitude estimation: 11 ± 2^a %
  RT, recognition threshold: 11.0 ± 0.2^a BU
[4]
  DT, detection threshold: 6.9 ± 0.2^ BU
  H, hedonic value: −28 ± 2^ %
  ME, magnitude estimation: 35 ± 2^ %
  RT, recognition threshold: 8.2 ± 0.2^a BU
[5]
  DT, detection threshold: 4.0 ± 0.6 BU
  H, hedonic value: −40 ± 13%
  ME, magnitude estimation: 45 ± 11%
  RT, recognition threshold: 5.2 ± 0.5 BU
[6]
  ME increases: 12%
  increases in H values: 9%
[7]
  DT, detection threshold: 7.0 ± 0.3^c BU
  H, hedonic estimation: −26 ± 3^b %
  ME, magnitude estimation: 33 ± 3^a %
  RT, recognition threshold: 8.5 ± 0.3^a BU
[8]
  DT, detection threshold: 8.8 ± 0.5^ BU
  H, hedonic value: −7 ± 3^a %
  ME, magnitude estimation: 12 ± 3^a %
  RT, recognition threshold: 10.6 ± 0.4^ BU
[9]
  DT, detection threshold: 6.3 ± 0.3^a BU
  H, hedonic value: −34 ± 3^ %
  ME, magnitude estimation: 41 ± 3^a %
  RT, recognition threshold: 7.7 ± 0.3^a BU
[10]
  DT, detection threshold: 5.0 BU
  H, hedonic value: −40%
  ME, magnitude estimation: 45%
  RT, recognition threshold: 5.0 BU
[11]
  DT, detection threshold: 7.4 ± 0.2^c BU
  H, hedonic estimation: −19 ± 2^ %
  ME, magnitude estimation: 26 ± 2^d %
  RT, recognition threshold: 9.4 ± 0.2^c BU
[12]
  DT, detection threshold: 8.9 ± 0.3^b BU
  H, hedonic value: −8 ± 2^a %
  ME, magnitude estimation: 11 ± 3^a %
  RT, recognition threshold: 10.9 ± 0.3^ BU
[13]
  DT, detection threshold: 6.7 ± 0.3^a BU
  H, hedonic value: −25 ± 3^ %
  ME, magnitude estimation: 33 ± 2^ %
  RT, recognition threshold: 8.9 ± 0.3^ BU
[14]
  DT, detection threshold: 3.8 ± 0.9 BU
  H, hedonic value: −26 ± 22%
  ME, magnitude estimation: 41 ± 15%
  RT, recognition threshold: 5.5 ± 0.9 BU
[15]
  DT, detection threshold: 6.9 ± 0.6 BU
  H, hedonic estimation: −22 ± 6%
  ME, magnitude estimation: 29 ± 5%
  RT, recognition threshold: 8.5 ± 0.6^c BU
[16]
  DT, detection threshold: 9.6 ± 0.8^ BU
  H, hedonic value: −11 ± 5^a %
  ME, magnitude estimation: 10 ± 4^a %
  RT, recognition threshold: 10.3 ± 1.0^ BU
[17]
  DT, detection threshold: 4.7 ± 0.7^a BU
  H, hedonic value: −31 ± 9^ %
  ME, magnitude estimation: 43 ± 5^c %
  RT, recognition threshold: 7.1 ± 0.7^a BU
[18]
  decrease of H values: 2%
  increase of ME values: 5%
[19]
  DT, detection threshold: 7.5 ± 0.2^c BU
  H, hedonic estimation: −15 ± 2^d %
  ME, magnitude estimation: 21 ± 2 ^ %
  RT, recognition threshold: 9.1 ± 0.2^c BU
[20]
  DT, detection threshold: 10.1 ± 0.3^d BU
  H, hedonic value: −3 ± 2^a %
  ME, magnitude estimation: 6 ± 2^a %
  RT, recognition threshold: 11.4 ± 0.2^ BU
[21]
  DT, detection threshold: 6.5 ± 0.3^ BU
  H, hedonic value: −19 ± 2^ %
  ME, magnitude estimation: 27 ± 2^ %
  RT, recognition threshold: 8.2 ± 0.3^a BU
[22]
  DT, detection threshold: 3.2 ± 0.8 BU
  H, hedonic value: −40 ± 18%
  ME, magnitude estimation: 47 ± 15%
  RT, recognition threshold: 3.8 ± 0.6 BU
[23]
  ME increases: 12%
  increases in H values: 7%
[24]
  DT, detection threshold: 6.8 ± 0.4^c BU
  H, hedonic estimation: −19 ± 2^d %
  ME, magnitude estimation: 26 ± 2^c %
  RT, recognition threshold: 8.4 ± 0.3^a BU
[25]
  DT, detection threshold: 9.8 ± 0.5^a BU
  H, hedonic value: −5 ± 2^a %
  ME, magnitude estimation: 7 ± 2^a %
  RT, recognition threshold: 10.8 ± 0.4^ BU
[26]
  DT, detection threshold: 5.7 ± 0.4^ BU
  H, hedonic value: −23 ± 3^ %
  ME, magnitude estimation: 31 ± 3^ %
  RT, recognition threshold: 7.6 ± 0.4^a BU
[27]
  DT, detection threshold: 1 BU
  H, hedonic value: −99%
  ME, magnitude estimation: 99%
  RT, recognition threshold: 1 BU
[28]
  DT, detection threshold: 7.1 ± 0.3^a BU
  H, hedonic estimation: −14 ± 2 ^ %
  ME, magnitude estimation: 21 ± 2^d %
  RT, recognition threshold: 9.0 ± 0.3^c BU
[29]
  DT, detection threshold: 9.4 ± 0.4^a BU
  H, hedonic value: −3 ± 2^a %
  ME, magnitude estimation: 7 ± 2^a %
  RT, recognition threshold: 10.9 ± 0.3^d BU
[30]
  DT, detection threshold: 6.1 ± 0.3^a BU
  H, hedonic value: −20 ± 2^ %
  ME, magnitude estimation: 27 ± 2^ %
  RT, recognition threshold: 8.1 ± 0.3^a BU
[31]
  DT, detection threshold: 2.0 ± 1.0 BU
  H, hedonic value: −35 ± 24%
  ME, magnitude estimation: 42 ± 20%
  RT, recognition threshold: 3.8 ± 0.9 BU
[32]
  DT, detection threshold: 7.2 ± 0.7 BU
  H, hedonic estimation: −15 ± 4%
  ME, magnitude estimation: 20 ± 4%
  RT, recognition threshold: 9.6 ± 0.6 BU
[33]
  DT, detection threshold: 10.0 ± 0.7^ BU
  H, hedonic value: −4 ± 2^a %
  ME, magnitude estimation: 4 ± 2^a %
  RT, recognition threshold: 11.6 ± 0.2^ BU
[34]
  DT, detection threshold: 4.9 ± 0.7^a BU
  H, hedonic value: −24 ± 8^ %
  ME, magnitude estimation: 33 ± 6^ %
  RT, recognition threshold: 8.0 ± 1.0^ BU
